Test results published in ChEMBL document CHEMBL1201861, “Genomics of Drug Sensitity in Cancer screening data, Wellcome Trust Sanger Institute”.

What was measured:
Test in all cases: cells
VA-ES-BJ = format: functional, cell-based, Homo sapiens; settings: Homo sapiens, VA-ES-BJ
Description: SANGER: Inhibition of human VA-ES-BJ cell growth in a cell viability assay.

MFH-ino = format: functional, cell-based; settings: Homo sapiens
Description: SANGER: Inhibition of human MFH-ino cell growth in a cell viability assay.

LXF-289 cell line = format: functional, cell-based, Homo sapiens; settings: Homo sapiens, LXF-289
Description: SANGER: Inhibition of human LXF-289 cell growth in a cell viability assay.

ME-180 = format: functional, cell-based; settings: Homo sapiens
Description: SANGER: Inhibition of human ME-180 cell growth in a cell viability assay.

HCC2218 = format: functional, cell-based; settings: Homo sapiens
Description: SANGER: Inhibition of human HCC2218 cell growth in a cell viability assay.

NOS-1 = format: functional, cell-based, Homo sapiens; settings: Homo sapiens, NOS-1
Description: SANGER: Inhibition of human NOS-1 cell growth in a cell viability assay.

SW48 = format: functional, cell-based, Homo sapiens; settings: Homo sapiens, SW48
Description: SANGER: Inhibition of human SW48 cell growth in a cell viability assay.

SF-268 = format: functional, cell-based, Homo sapiens; settings: Homo sapiens, SF-268
Description: SANGER: Inhibition of human SF268 cell growth in a cell viability assay.

T47D = format: functional, cell-based, Homo sapiens; settings: Homo sapiens, T47D
Description: SANGER: Inhibition of human T47D cell growth in a cell viability assay.

PA-1 = format: functional, cell-based, Homo sapiens; settings: Homo sapiens, PA-1
Description: SANGER: Inhibition of human PA-1 cell growth in a cell viability assay.

T98G = format: functional, cell-based, Homo sapiens; settings: Homo sapiens, T98G
Description: SANGER: Inhibition of human T98G cell growth in a cell viability assay.

CP66-MEL = format: functional, cell-based, Homo sapiens; settings: Homo sapiens, CP66-MEL
Description: SANGER: Inhibition of human CP66-MEL cell growth in a cell viability assay.

LU-139 = format: functional, cell-based; settings: Homo sapiens
Description: SANGER: Inhibition of human LU-139 cell growth in a cell viability assay.

COLO-741 = format: functional, cell-based, Homo sapiens; settings: Homo sapiens, COLO-741
Description: SANGER: Inhibition of human COLO-741 cell growth in a cell viability assay.

HD-MY-Z = format: functional, cell-based, Homo sapiens; settings: Homo sapiens, HD-MY-Z
Description: SANGER: Inhibition of human HD-MY-Z cell growth in a cell viability assay.

JAR = format: functional, cell-based, Homo sapiens; settings: Homo sapiens, JAR
Description: SANGER: Inhibition of human JAR cell growth in a cell viability assay.

HOP-92 = format: functional, cell-based, Homo sapiens; settings: Homo sapiens, HOP-92
Description: SANGER: Inhibition of human HOP-92 cell growth in a cell viability assay.

NCI-H446 = format: functional, cell-based; settings: Homo sapiens
Description: SANGER: Inhibition of human NCI-H446 cell growth in a cell viability assay.

639-V = format: functional, cell-based, Homo sapiens; settings: Homo sapiens, 639-V
Description: SANGER: Inhibition of human 639-V cell growth in a cell viability assay.

ACHN = format: functional, cell-based, Homo sapiens; settings: Homo sapiens, ACHN
Description: SANGER: Inhibition of human ACHN cell growth in a cell viability assay.

SW1990 = format: functional, cell-based, Homo sapiens; settings: Homo sapiens, SW1990
Description: SANGER: Inhibition of human SW1990 cell growth in a cell viability assay.

RCM-1 = format: functional, cell-based, Homo sapiens; settings: Homo sapiens, RCM-1
Description: SANGER: Inhibition of human RCM-1 cell growth in a cell viability assay.

SNU1 = format: functional, cell-based; settings: Homo sapiens
Description: SANGER: Inhibition of human NCI-SNU-1 cell growth in a cell viability assay.

CW-2 = format: functional, cell-based, Homo sapiens; settings: Homo sapiens, CW-2
Description: SANGER: Inhibition of human CW-2 cell growth in a cell viability assay.

MDA-MB-175-VII = format: functional, cell-based, Homo sapiens; settings: Homo sapiens, MDA-MB-175-VII
ES4 = format: functional, cell-based, Homo sapiens; settings: Homo sapiens, ES4
Description: SANGER: Inhibition of human ES4 cell growth in a cell viability assay.

G-402 = format: functional, cell-based, Homo sapiens; settings: Homo sapiens, G-402
Description: SANGER: Inhibition of human G-402 cell growth in a cell viability assay.

MOLT-4 = format: functional, cell-based; settings: Homo sapiens
Description: SANGER: Inhibition of human MOLT-4 cell growth in a cell viability assay.

MIA PaCa-2 = format: functional, cell-based, Homo sapiens; settings: Homo sapiens, MIA PaCa-2
Description: SANGER: Inhibition of human MIA-PaCa-2 cell growth in a cell viability assay.

MEG-01 = format: functional, cell-based; settings: Homo sapiens
Description: SANGER: Inhibition of human MEG-01 cell growth in a cell viability assay.

Ramos-2G6-4C10 = format: functional, cell-based; settings: Homo sapiens
Description: SANGER: Inhibition of human Ramos-2G6-4C10 cell growth in a cell viability assay.

A-375 = format: functional, cell-based, Homo sapiens; settings: Homo sapiens, A-375
Description: SANGER: Inhibition of human A375 cell growth in a cell viability assay.

IGR-1 = format: functional, cell-based, Homo sapiens; settings: Homo sapiens, IGR-1
Description: SANGER: Inhibition of human IGR-1 cell growth in a cell viability assay.

SW780 = format: functional, cell-based, Homo sapiens; settings: Homo sapiens, SW780
Description: SANGER: Inhibition of human SW780 cell growth in a cell viability assay.

HCC 2998 = format: functional, cell-based, Homo sapiens; settings: Homo sapiens, HCC 2998
Description: SANGER: Inhibition of human HCC2998 cell growth in a cell viability assay.

BPH-1 = format: functional, cell-based, Homo sapiens; settings: Homo sapiens, BPH-1
Description: SANGER: Inhibition of human BPH-1 cell growth in a cell viability assay.

NCI-H510A = format: functional, cell-based; settings: Homo sapiens
Description: SANGER: Inhibition of human NCI-H510A cell growth in a cell viability assay.

BFTC-909 = format: functional, cell-based, Homo sapiens; settings: Homo sapiens, BFTC-909
Description: SANGER: Inhibition of human BFTC-909 cell growth in a cell viability assay.

NCI-H520 = format: functional, cell-based, Homo sapiens; settings: Homo sapiens, NCI-H520
Description: SANGER: Inhibition of human NCI-H520 cell growth in a cell viability assay.

HCC1569 = format: functional, cell-based, Homo sapiens; settings: Homo sapiens, HCC1569
Description: SANGER: Inhibition of human HCC1569 cell growth in a cell viability assay.

RMG-I = format: functional, cell-based, Homo sapiens; settings: Homo sapiens, RMG-I
Description: SANGER: Inhibition of human RMG-I cell growth in a cell viability assay.

J82 = format: functional, cell-based; settings: Homo sapiens
Description: SANGER: Inhibition of human J82 cell growth in a cell viability assay.

SNU-5 = format: functional, cell-based; settings: Homo sapiens
Description: SANGER: Inhibition of human NCI-SNU-5 cell growth in a cell viability assay.

EFO-21 = format: functional, cell-based, Homo sapiens; settings: Homo sapiens, EFO-21
Description: SANGER: Inhibition of human EFO-21 cell growth in a cell viability assay.

HTC-C3 = format: functional, cell-based, Homo sapiens; settings: Homo sapiens, HTC-C3
Description: SANGER: Inhibition of human HTC-C3 cell growth in a cell viability assay.

NCI-H441 = format: functional, cell-based; settings: Homo sapiens
Description: SANGER: Inhibition of human NCI-H441 cell growth in a cell viability assay.

CAKI-1 = format: functional, cell-based, Homo sapiens; settings: Homo sapiens, CAKI-1
Description: SANGER: Inhibition of human CAKI-1 cell growth in a cell viability assay.

NCI-H1437 = format: functional, cell-based, Homo sapiens; settings: Homo sapiens, NCI-H1437
Description: SANGER: Inhibition of human NCI-H1437 cell growth in a cell viability assay.

U-118-MG = format: functional, cell-based, Homo sapiens; settings: Homo sapiens, U-118-MG
Description: SANGER: Inhibition of human U-118-MG cell growth in a cell viability assay.

KYSE-150 cell line = format: functional, cell-based, Homo sapiens; settings: Homo sapiens, KYSE-150
Description: SANGER: Inhibition of human KYSE-150 cell growth in a cell viability assay.

COLO-684 = format: functional, cell-based; settings: Homo sapiens
Description: SANGER: Inhibition of human COLO-684 cell growth in a cell viability assay.

RPMI-8226 = format: functional, cell-based; settings: Homo sapiens
Description: SANGER: Inhibition of human RPMI-8226 cell growth in a cell viability assay.

## Cc1cnc(-c2cnc(NCCNc3ccc(C#N)cn3)nc2-c2ccc(Cl)cc2Cl)[nH]1 [LADUVIGLUSIB]
VA-ES-BJ
  IC50: > 2560 nM
MFH-ino
  IC50: > 2560 nM
LXF-289 cell line
  IC50: > 2560 nM
ME-180
  IC50: > 2560 nM
HCC2218
  IC50: > 2560 nM
NOS-1
  IC50: > 2560 nM
SW48
  IC50: > 2560 nM
SF-268
  IC50: > 2560 nM
T47D
  IC50: > 2560 nM
PA-1
  IC50: > 2560 nM
T98G
  IC50: > 2560 nM
CP66-MEL
  IC50: > 2560 nM
LU-139
  IC50: > 2560 nM
COLO-741
  IC50: > 2560 nM
HD-MY-Z
  IC50: > 2560 nM
JAR
  IC50: > 2560 nM
HOP-92
  IC50: > 2560 nM
NCI-H446
  IC50: > 2560 nM
639-V
  IC50: > 2560 nM
ACHN
  IC50: > 2560 nM
SW1990
  IC50: > 2560 nM
RCM-1
  IC50: > 2560 nM
SNU1
  IC50: > 2560 nM
CW-2
  IC50: > 2560 nM
MDA-MB-175-VII
  IC50: > 2560 nM
ES4
  IC50: > 2560 nM
G-402
  IC50: > 2560 nM
MOLT-4
  IC50: > 2560 nM
MIA PaCa-2
  IC50: 1760 nM
MEG-01
  IC50: > 2560 nM
Ramos-2G6-4C10
  IC50: > 2560 nM
A-375
  IC50: > 2560 nM
IGR-1
  IC50: > 2560 nM
SW780
  IC50: > 2560 nM
HCC 2998
  IC50: > 2560 nM
BPH-1
  IC50: > 2560 nM
NCI-H510A
  IC50: > 2560 nM
BFTC-909
  IC50: > 2560 nM
NCI-H520
  IC50: > 2560 nM
HCC1569
  IC50: > 2560 nM
RMG-I
  IC50: > 2560 nM
J82
  IC50: > 2560 nM
SNU-5
  IC50: > 2560 nM
EFO-21
  IC50: > 2560 nM
HTC-C3
  IC50: > 2560 nM
NCI-H441
  IC50: > 2560 nM
CAKI-1
  IC50: > 2560 nM
NCI-H1437
  IC50: > 2560 nM
U-118-MG
  IC50: > 2560 nM
KYSE-150 cell line
  IC50: > 2560 nM
COLO-684
  IC50: > 2560 nM
RPMI-8226
  IC50: > 2560 nM

## C[C@]1(O)C[C@@H](c2nc(-c3ccc4ccc(-c5ccccc5)nc4c3)c3c(N)nccn32)C1 [LINSITINIB]
VA-ES-BJ
  IC50: > 2560 nM
MFH-ino
  IC50: > 2560 nM
LXF-289 cell line
  IC50: > 2560 nM
ME-180
  IC50: > 2560 nM
HCC2218
  IC50: > 2560 nM
NOS-1
  IC50: 523 nM
SW48
  IC50: > 2560 nM
SF-268
  IC50: > 2560 nM
T47D
  IC50: > 2560 nM
PA-1
  IC50: > 2560 nM
T98G
  IC50: > 2560 nM
CP66-MEL
  IC50: 2290 nM
LU-139
  IC50: > 2560 nM
COLO-741
  IC50: > 2560 nM
HD-MY-Z
  IC50: > 2560 nM
JAR
  IC50: > 2560 nM
HOP-92
  IC50: > 2560 nM
NCI-H446
  IC50: > 2560 nM
639-V
  IC50: > 2560 nM
ACHN
  IC50: > 2560 nM
SW1990
  IC50: > 2560 nM
RCM-1
  IC50: > 2560 nM
SNU1
  IC50: > 2560 nM
CW-2
  IC50: > 2560 nM
MDA-MB-175-VII
  IC50: > 2560 nM
ES4
  IC50: 410 nM
G-402
  IC50: > 2560 nM
MOLT-4
  IC50: > 2560 nM
MIA PaCa-2
  IC50: > 2560 nM
MEG-01
  IC50: > 2560 nM
Ramos-2G6-4C10
  IC50: > 2560 nM
A-375
  IC50: 476 nM
IGR-1
  IC50: > 2560 nM
SW780
  IC50: > 2560 nM
HCC 2998
  IC50: 883 nM
BPH-1
  IC50: > 2560 nM
NCI-H510A
  IC50: > 2560 nM
BFTC-909
  IC50: > 2560 nM
NCI-H520
  IC50: > 2560 nM
HCC1569
  IC50: > 2560 nM
RMG-I
  IC50: > 2560 nM
J82
  IC50: > 2560 nM
SNU-5
  IC50: > 2560 nM
EFO-21
  IC50: > 2560 nM
HTC-C3
  IC50: > 2560 nM
NCI-H441
  IC50: > 2560 nM
CAKI-1
  IC50: > 2560 nM
NCI-H1437
  IC50: > 2560 nM
U-118-MG
  IC50: > 2560 nM
KYSE-150 cell line
  IC50: > 2560 nM
COLO-684
  IC50: > 2560 nM
RPMI-8226
  IC50: > 2560 nM

## C=CCc1cccc(/C=N/NC(=O)CN2CCN(Cc3ccccc3)CC2)c1O [PAC-1]
VA-ES-BJ
  IC50: > 2560 nM
MFH-ino
  IC50: > 2560 nM
LXF-289 cell line
  IC50: > 2560 nM
ME-180
  IC50: > 2560 nM
HCC2218
  IC50: > 2560 nM
NOS-1
  IC50: > 2560 nM
SW48
  IC50: > 2560 nM
SF-268
  IC50: > 2560 nM
T47D
  IC50: > 2560 nM
PA-1
  IC50: > 2560 nM
T98G
  IC50: > 2560 nM
CP66-MEL
  IC50: > 2560 nM
LU-139
  IC50: > 2560 nM
COLO-741
  IC50: > 2560 nM
HD-MY-Z
  IC50: > 2560 nM
JAR
  IC50: > 2560 nM
HOP-92
  IC50: > 2560 nM
NCI-H446
  IC50: > 2560 nM
639-V
  IC50: > 2560 nM
ACHN
  IC50: 1690 nM
SW1990
  IC50: > 2560 nM
RCM-1
  IC50: > 2560 nM
SNU1
  IC50: > 2560 nM
CW-2
  IC50: > 2560 nM
MDA-MB-175-VII
  IC50: > 2560 nM
ES4
  IC50: > 2560 nM
G-402
  IC50: > 2560 nM
MOLT-4
  IC50: > 2560 nM
MIA PaCa-2
  IC50: > 2560 nM
MEG-01
  IC50: > 2560 nM
Ramos-2G6-4C10
  IC50: > 2560 nM
A-375
  IC50: 869 nM
IGR-1
  IC50: > 2560 nM
SW780
  IC50: > 2560 nM
HCC 2998
  IC50: 1180 nM
BPH-1
  IC50: > 2560 nM
NCI-H510A
  IC50: > 2560 nM
BFTC-909
  IC50: > 2560 nM
NCI-H520
  IC50: > 2560 nM
HCC1569
  IC50: > 2560 nM
RMG-I
  IC50: > 2560 nM
J82
  IC50: > 2560 nM
SNU-5
  IC50: > 2560 nM
EFO-21
  IC50: > 2560 nM
HTC-C3
  IC50: > 2560 nM
NCI-H441
  IC50: > 2560 nM
CAKI-1
  IC50: > 2560 nM
NCI-H1437
  IC50: 2230 nM
U-118-MG
  IC50: > 2560 nM
KYSE-150 cell line
  IC50: > 2560 nM
COLO-684
  IC50: > 2560 nM
RPMI-8226
  IC50: > 2560 nM
